Patent US9200020B2, “6-oxopurine phosphoribosyltransferase inhibitors” (THE UNIVERSITY OF QUEENSLAND, priority 2012, dated 2015)
Like-named read-outs stand apart in the source and are kept apart here.

How the values were obtained:
E. coli XGPRT = E. coli XGPRT (Escherichia coli (strain K12), UniProt P0A9M5); test: Ki values with E. coli XGPRT; conditions: read-out: Ki (μM) XGPRT
P. falciparum strain D6 = test: [3H]-hypoxanthine growth inhibition assay, P. falciparum D6; conditions: Plasmodium falciparum; for IC50: D6, read-out: D6 IC50; for IC90: D6, read-out: D6 IC90
P. falciparum strain W2 = test: [3H]-hypoxanthine growth inhibition assay, P. falciparum W2; conditions: Plasmodium falciparum; for IC50: W2, read-out: W2 IC50; for IC90: W2, read-out: W2 IC90
PvHGPRT = PvHGPRT (Plasmodium vivax, UniProt A5K7E9); test: biochemical; conditions: for Ki ratio (proto:phosphonatoethyl): PvHGPRT, decrease in Ki when N-H is replaced by phosphonoethyl
PvHGPRT, sequence (A5K7E9 1-233): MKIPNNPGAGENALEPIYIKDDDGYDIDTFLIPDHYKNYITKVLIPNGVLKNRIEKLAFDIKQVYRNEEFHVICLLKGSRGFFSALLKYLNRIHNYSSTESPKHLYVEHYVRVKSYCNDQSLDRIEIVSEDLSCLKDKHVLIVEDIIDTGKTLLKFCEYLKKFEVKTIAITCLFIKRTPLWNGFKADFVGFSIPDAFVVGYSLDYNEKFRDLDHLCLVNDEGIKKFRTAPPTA

PfHGXPRT = PfHGXPRT (Plasmodium falciparum (isolate FCR-3 / Gambia), UniProt P20035); test: biochemical; assay type: biochemical
human HGPRT = human HGPRT (Homo sapiens (Human), UniProt P00492); test: Ki determination, spectrophotometric assay, human HGPRT; assay type: biochemical; conditions: Ki(app), 25° C., pH 7.4, guanine 60 μM
human HGPRT, sequence (P00492 whole entry): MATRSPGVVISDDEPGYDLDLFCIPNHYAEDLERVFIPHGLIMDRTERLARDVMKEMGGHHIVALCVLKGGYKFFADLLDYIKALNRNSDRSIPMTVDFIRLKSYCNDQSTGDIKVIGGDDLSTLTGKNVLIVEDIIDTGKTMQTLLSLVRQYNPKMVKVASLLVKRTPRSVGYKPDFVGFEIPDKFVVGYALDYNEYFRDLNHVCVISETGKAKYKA

[1] = system: M. tuberculosis H37Ra (ATCC 25177); test: Resazurin reduction microplate assay, M. tuberculosis; conditions: five days at 37° C., resazurin fluorescence
[2] = Ki(app), 25° C., pH 7.4, guanine 60 μM, read-out: Ki Pf
[3] = Ki(app), 25° C., pH 7.4, guanine 60 μM, read-out: Ki Pv

Nc1nc2c(ncn2CCN(CCOCP(=O)(O)O)CCP(=O)(O)O)c(=O)[nH]1 [Compound 1]
Ki (E. coli XGPRT): 0.4 µM

Nc1nc2c(ncn2CCN(CCP(=O)(O)O)CP(=O)(O)O)c(=O)[nH]1 [Compound 2]
Ki (E. coli XGPRT): 27 µM

N#CCCCN(CCn1cnc2c(=O)[nH]c(N)nc21)CCP(=O)(O)O [Compound 4]
IC50 (P. falciparum strain D6): 8.6 ± 1.5 µM
IC90 (P. falciparum strain D6): 24.5 ± 3.5 µM
IC50 (P. falciparum strain W2): 5.7 ± 3.9 µM
IC90 (P. falciparum strain W2): 32.5 ± 3.5 µM

CCOC(=O)[C@H](Cc1ccccc1)NP(=O)(CCN(CCCC#N)CCn1cnc2c(=O)[nH]cnc21)N[C@@H](Cc1ccccc1)C(=O)OCC [Compound 6]
IC50 (P. falciparum strain D6): 4.2 ± 1.4 µM
IC90 (P. falciparum strain D6): 10.6 ± 1.8 µM
IC50 (P. falciparum strain W2): 5.5 ± 1.6 µM
IC90 (P. falciparum strain W2): 16.1 ± 0.1 µM

COC(=O)CCN(CCn1cnc2c(=O)[nH]c(N)nc21)CCP(=O)(O)O [Compound 8]
IC50 (P. falciparum strain D6): 3.5 ± 1 µM
IC90 (P. falciparum strain D6): 8.6 ± 1.4 µM
IC50 (P. falciparum strain W2): 2.9 ± 1.1 µM
IC90 (P. falciparum strain W2): 15.9 ± 4.5 µM

CCOC(=O)[C@H](Cc1ccccc1)NP(=O)(CCN(CCC(=O)OC)CCn1cnc2c(=O)[nH]c(N)nc21)N[C@@H](Cc1ccccc1)C(=O)OCC [Compound 10]
IC50 (P. falciparum strain D6): 11.8 ± 1.6 µM
IC90 (P. falciparum strain D6): 30 ± 2.9 µM
IC50 (P. falciparum strain W2): 5.6 ± 1.8 µM
IC90 (P. falciparum strain W2): 37.5 ± 3.5 µM

N#CCCN(CCn1cnc2c(=O)[nH]c(N)nc21)CCP(=O)(O)O [Compound 11]
IC50 (P. falciparum strain D6): ~145 µM

N#CCCN(CCn1cnc2c(=O)[nH]cnc21)CCP(=O)(O)O [Compound 12]
IC50 (P. falciparum strain D6): 6.4 ± 0.9 µM
IC90 (P. falciparum strain D6): 10.2 ± 1.6 µM
IC50 (P. falciparum strain W2): 10.4 ± 2 µM
IC90 (P. falciparum strain W2): 21.2 ± 1 µM

CCCOC(=O)[C@H](Cc1ccccc1)NP(=O)(CCN(CCC#N)CCn1cnc2c(=O)[nH]c(N)nc21)N[C@@H](Cc1ccccc1)C(=O)OCCC [Compound 13]
IC50 (P. falciparum strain D6): 75 µM
IC90 (P. falciparum strain D6): 215 µM

CCCOC(=O)[C@H](Cc1ccccc1)NP(=O)(CCN(CCC#N)CCn1cnc2c(=O)[nH]cnc21)N[C@@H](Cc1ccccc1)C(=O)OCCC [Compound 14]
IC50 (P. falciparum strain D6): 12.3 ± 1.6 µM
IC90 (P. falciparum strain D6): 18.7 ± 1.7 µM
IC50 (P. falciparum strain W2): 19.3 ± 7.5 µM
IC90 (P. falciparum strain W2): 48 ± 13.6 µM

COC(=O)CCCN(CCn1cnc2c(=O)[nH]c(N)nc21)CCP(=O)(O)O [Example 3, 9-[(N-(4-Methoxy-4-oxobutyl)-N-(2-phosphonoethyl))-2-aminoethyl]guanine]
Ki (PvHGPRT; Ki Pv): ≥ 200 µM

Nc1nc2c(ncn2CCN(CCP(=O)(O)O)CCP(=O)(O)O)c(=O)[nH]1 [Example 11, 9-[(N,N-(Bis-2-phosphonoethyl))-2-aminoethyl]guanine]
Ki ratio (proto:phosphonatoethyl) (PvHGPRT): 12-fold

Nc1nc2c(ncn2CCNCCP(=O)(O)O)c(=O)[nH]1 [Example 12, 9-[(N-(2-Phosphonoethyl))-2-aminoethyl]guanine]
Ki (PfHGXPRT; [2]): 16000 ± 1000 nM
Ki (human HGPRT): 3 ± 0.6 µM
Ki (PvHGPRT; [3]): 11 ± 0.6 µM

CCOC(=O)CN(CCn1cnc2c(=O)[nH]cnc21)CCP(=O)(O)O [Example 15, 9-[(N-(2-Ethoxy-2-oxoethyl)-N-(2-phosphonoethyl))-2-aminoethyl]hypoxanthine]
Ki (PfHGXPRT; [2]): 1900 ± 400 nM
Ki (human HGPRT): 2.6 ± 0.5 µM
Ki (PvHGPRT; [3]): 11 ± 1 µM

COC(=O)CCN(CCn1cnc2c(=O)[nH]cnc21)CCP(=O)(O)O [Example 16, 9-[(N-(3-Methoxy-3-oxopropyl)-N-(2-phosphonoethyl))-2-aminoethyl]hypoxanthine]
Ki (PfHGXPRT; [2]): 100 ± 30 nM
Ki (human HGPRT): ≥ 200 µM
Ki (PvHGPRT; [3]): 21 ± 2 µM

COC(=O)CCCN(CCn1cnc2c(=O)[nH]cnc21)CCP(=O)(O)O [Example 17, 9-[(N-(4-Methoxy-4-oxobutyl)-N-(2-phosphonoethyl))-2-aminoethyl] hypoxanthine]
Ki (PfHGXPRT; [2]): ≥ 220000 nM
Ki (human HGPRT): 22 ± 3 µM
Ki (PvHGPRT; [3]): ≥ 250 µM

N#CCN(CCn1cnc2c(=O)[nH]cnc21)CCP(=O)(O)O [Example 18, 9-[(N-(2-Cyanomethyl)-N-(2-phosphonoethyl))-2-aminoethyl]hypoxanthine]
Ki (PfHGXPRT; [2]): ≥ 250000 nM
Ki (human HGPRT): 35 µM
Ki (PvHGPRT; [3]): 47 ± 5 µM

N#CCCN(CCn1cnc2c(=O)[nH]cnc21)CCP(=O)(O)O [Example 19, 9-[(N-(2-Cyanoethyl)-N-(2-phosphonoethyl))-2-aminoethyl]hypoxanthine]
Ki (PfHGXPRT; [2]): 200 ± 50 nM
Ki (human HGPRT): 2.4 ± 0.2 µM
Ki (PvHGPRT; [3]): 0.7 ± 0.06 µM

CC(C#N)CN(CCn1cnc2c(=O)[nH]cnc21)CCP(=O)(O)O (stereo not shown) [Example 20, 9-[(N-(2-Cyanopropyl)-N-(2-phosphonoethyl))-2-aminoethyl]hypoxanthine]
Ki (PfHGXPRT; [2]): 6000 ± 60 nM
Ki (human HGPRT): 29 ± 2 µM
Ki (PvHGPRT; [3]): ≥ 230 µM

O=C(O)CN(CCn1cnc2c(=O)[nH]cnc21)CCP(=O)(O)O [Example 21, 9-[(N-(Carboxymethyl)-N-(2-phosphonoethyl))-2-aminoethyl]hypoxanthine]
Ki (PfHGXPRT): 600 ± 60 nM

O=C(O)CCN(CCn1cnc2c(=O)[nH]cnc21)CCP(=O)(O)O [Example 22, 9-[(N-(2-Carboxyethyl)-N-(2-phosphonoethyl))-2-aminoethyl]hypoxanthine]
Ki (PfHGXPRT; [2]): 400 ± 30 nM
Ki (human HGPRT): ≥ 240 µM
Ki (PvHGPRT; [3]): 41 ± 5 µM

O=C(O)CCCN(CCn1cnc2c(=O)[nH]cnc21)CCP(=O)(O)O [Example 23, 9-[(N-(Carboxypropyl)-N-(2-phosphonoethyl))-2-aminoethyl]hypoxanthine]
Ki (PfHGXPRT): ≥ 210000 nM

O=c1[nH]cnc2c1ncn2CCN(CCO)CCP(=O)(O)O [Example 24, 9-[(N-(2-Hydroxyethyl)-N-(2-phosphonoethyl))-2-aminoethyl]hypoxanthine]
Ki (PfHGXPRT; [2]): 2600 ± 400 nM
Ki (human HGPRT): 5.5 ± 0.4 µM
Ki (PvHGPRT; [3]): 21 ± 3 µM

O=c1[nH]cnc2c1ncn2CCN(CCP(=O)(O)O)CCP(=O)(O)O [Example 25, 9-[(N,N-(Bis-2-phosphonoethyl))-2-aminoethyl]hypoxanthine]
Ki (PfHGXPRT): 400 ± 100 nM
Ki ratio (proto:phosphonatoethyl) (PvHGPRT): >20-fold

O=c1[nH]cnc2c1ncn2CCNCCP(=O)(O)O [Example 26, 9-[(N-(2-Phosphonoethyl))-2-aminoethyl]hypoxanthine]
Ki (PfHGXPRT): ≥ 200000 nM
Ki (human HGPRT): 40 ± 2 µM
Ki (PvHGPRT; [3]): ≥ 250 µM

Nc1nc2c(ncn2CCOCCP(=O)(O)O)c(=O)[nH]1 [PEEG, 2-(Phosphonoethoxy)ethyl guanine, reference compound]
Ki (PfHGXPRT; [2]): 100 ± 20 nM
Ki (human HGPRT): 1 ± 0.5 µM

O=c1[nH]cnc2c1ncn2CCOCCP(=O)(O)O [PEEHx, 2-(phosphonoethoxy)ethyl hypoxanthine, reference compound]
Ki (PfHGXPRT; [2]): 300 ± 40 nM
Ki (human HGPRT): 3.6 ± 0.2 µM

CCOC(=O)[C@H](Cc1ccccc1)NP(=O)(CCN(CCCC#N)CCn1cnc2c(=O)[nH]cnc21)N[C@@H](Cc1ccccc1)C(=O)OCC [drawing 83]
IC50 [1]: 60 µM
